The values below come from patent publication US11583538B2, “Substituted pyrrolo[1,2-a]pyrazines and pyrrolo[1,2-a][1,4]diazepines as TREX1 inhibitors” (Venenum Biodesign, LLC, priority 2019, dated 2023).

Structures are written as SMILES.

By IC50 is commonly meant the concentration at which inhibition is half-maximal. Low values mean inhibition by little substance, high ones a need for much substance.

Sequence of human TREX1 (Q9NSU2 whole entry, the tested form may be a part): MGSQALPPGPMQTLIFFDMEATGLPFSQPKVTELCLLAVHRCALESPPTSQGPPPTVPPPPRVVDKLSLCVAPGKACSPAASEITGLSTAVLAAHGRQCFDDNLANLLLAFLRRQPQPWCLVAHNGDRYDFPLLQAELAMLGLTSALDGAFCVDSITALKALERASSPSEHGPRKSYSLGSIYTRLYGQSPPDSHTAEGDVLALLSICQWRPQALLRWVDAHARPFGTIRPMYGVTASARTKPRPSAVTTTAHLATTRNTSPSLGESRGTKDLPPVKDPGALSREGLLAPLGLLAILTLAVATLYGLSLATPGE

In the test the target is human TREX1 (Homo sapiens (Human), UniProt Q9NSU2). In words: TREX1 Exonuclease Assay. The format is biochemical. How it is done:
For human TREX1, the nucleotide sequence of the gene construct was codon optimized for expression in the bacterial host. The sequence was incorporated into the pMAL-c5e vector (NEB) downstream of a solubility-promoting MBP (maltose binding protein) fusion partner. The fusion protein product was expressed in E. coli strain BL21 (DE3) (Millipore) and purified in a series of chromatographic steps. Initial steps were conducted using a dextrin sepharose affinity column followed by a Q-sepharose ion exchange column (both GE Healthcare). After the second column the MBP partner was removed by incubation with enterokinase (NEB). Further purification was carried out with the second application of a Q-sepharose column followed by a Superdex 75 (GE Healthcare) size exclusion column. Finally, a heparin sepharose column (GE Healthcare) was applied to remove contaminating nucleotides.
To evaluate the effect of compounds on TREX1 activity, test compounds were serially diluted (11-point, 3-fold) from 10 mM stock solutions and delivered to 384-well low-volume assay plates in 80 nL DMSO using an acoustic dispenser. Next, 4 μL of human TREX1 (0.5 nM), or murine TREX1 (1 nM), diluted in assay buffer (20 mM Tris pH 7.5, 5 mM MgCl2, 100 μg/mL BSA, 0.002% Triton X-100, 2 mM DTT), was added to the assay plate. After incubating for 30 minutes, 4 μL of labeled DNA oligonucleotide (500 nM) in assay buffer was added to initiate TREX1 exonuclease activity. The reaction was allowed to proceed for 45 minutes at room temperature prior to the addition of 4 μL of 150 mM EDTA to halt TREX1 activity.
The molecule `NC(=O)CC[C@H](C(=O)N1Cc2cc(Cl)c(Cl)cc2C1)N1CCC(CCc2ccccc2)N2C[C@H](N)C[C@H]2C1=O` (some centres unmarked) [Example 20] yielded an IC50 of 10000 to 100000 nM.
`COc1cc(Cl)c(Cl)cc1CNC(=O)[C@@H](CCC(=O)O)N1CCC(CCc2ccccc2)N2C[C@H](N)C[C@H]2C1=O` (some centres unmarked) [Example 21] showed an IC50 below 1000 nM.
For the molecule `NC(=O)C[C@H](C(=O)NCc1ccc(Cl)c(Cl)c1)N1CCC(CCc2ccccc2)N2C[C@H](N)C[C@H]2C1=O` (some centres unmarked) [Example 23], the IC50 is below 1000 nM.
To `N=C(N)NCCC[C@H](C(=O)NCc1ccc(Cl)c(Cl)c1)N1CCC(CCc2ccccc2)N2C[C@H](N)C[C@H]2C1=O` (some centres unmarked) [Example 24] belongs below 1000 nM; to `N[C@@H]1C[C@H]2C(=O)N([C@H](CCC(=O)O)C(=O)NCc3ccc(Cl)c(Cl)n3)CCC(CCc3ccccc3)N2C1` (some centres unmarked) [Example 25], below 1000 nM; to `N[C@@H]1C[C@H]2C(=O)N([C@H](CCC(=O)O)C(=O)N3CCCC[C@H]3c3ccc(Cl)c(Cl)c3)CCC(CCc3ccccc3)N2C1` (some centres unmarked) [Example 26], below 1000 nM.
Consider `N[C@@H]1C[C@H]2C(=O)N([C@H](CCC(=O)O)C(=O)N3CCC[C@H]3c3ccc(Cl)c(Cl)c3)CCC(CCc3ccccc3)N2C1` (some centres unmarked) [Example 27], for which the IC50 is below 1000 nM.
To `N[C@@H]1C[C@H]2C(=O)N([C@H](CCC(=O)O)C(=O)NCc3cc(Cl)c(Cl)cn3)CCC(CCc3ccccc3)N2C1` (some centres unmarked) [Example 28] belongs below 1000 nM; to `N[C@@H]1C[C@H]2C(=O)N([C@H](CCC(=O)O)C(=O)NCc3cc(Cl)c(Cl)cc3F)CCC(CCc3ccccc3)N2C1` (some centres unmarked) [Example 31], below 1000 nM.
`N[C@@H]1C[C@H]2C(=O)N([C@H](CCC(=O)O)C(=O)N3CCOC[C@H]3c3ccc(Cl)c(Cl)c3)CCC(CCc3ccccc3)N2C1` (some centres unmarked) [Example 32] had an IC50 below 1000 nM.
`N[C@@H]1C[C@H]2C(=O)N([C@H]3CCN(Cc4ccc(Cl)c(Cl)c4)C3=O)CCC(CCc3ccccc3)N2C1` (some centres unmarked) [Example 33] returned an IC50 below 1000 nM.
To `N[C@@H]1C[C@H]2C(=O)N([C@H]3CCCN(Cc4ccc(Cl)c(Cl)c4)C3=O)CCC(CCc3ccccc3)N2C1` (some centres unmarked) [Example 34] belongs below 1000 nM; to `N[C@@H]1C[C@H]2C(=O)N([C@@H]3CCCN(Cc4ccc(Cl)c(Cl)c4)C3=O)CCC(CCc3ccccc3)N2C1` (some centres unmarked) [Example 35], below 1000 nM.
To `NC(=O)C[C@H](C(=O)NCc1ccc(Cl)c(Cl)n1)N1CCC(CCc2ccccc2)N2C[C@H](N)C[C@H]2C1=O` (some centres unmarked) [Example 36] belongs below 1000 nM; to `Cn1c(Cl)ccc(CNC(=O)[C@@H](CCC(=O)O)N2CCC(CCc3ccccc3)N3C[C@H](N)C[C@H]3C2=O)c1=O` (some centres unmarked) [Example 37], below 1000 nM.
In the case of `N[C@@H]1C[C@H]2C(=O)N(c3cccn(Cc4ccc(Cl)c(Cl)c4)c3=O)CCC(CCc3ccccc3)N2C1` (some centres unmarked) [Example 38], the IC50 is below 1000 nM.
To `CC(C)C[C@H](C(=O)NCc1cccc(Cl)c1)N1CCC(CCc2ccccc2)N2C[C@H](N)C[C@H]2C1=O` (some centres unmarked) [Example 43] belongs 1000 to 9990 nM.
The value for `CC(C)C[C@H](C(=O)NCc1ccccc1Cl)N1CCC(CCc2ccccc2)N2C[C@H](N)C[C@H]2C1=O` (some centres unmarked) [Example 44] was below 1000 nM; that for `CC(C)C[C@H](C(=O)NCc1ccc(Cl)cc1Cl)N1CCC(CCc2ccccc2)N2C[C@H](N)C[C@H]2C1=O` (some centres unmarked) [Example 48] was 1000 to 9990 nM; that for `CC(C)C[C@H](C(=O)NCc1ccc(C#N)cc1)N1CCC(CCc2ccccc2)N2C[C@H](N)C[C@H]2C1=O` (some centres unmarked) [Example 49] was below 1000 nM.
To `CC(C)C[C@H](C(=O)NCc1cc(Cl)cc(Cl)c1)N1CCC(CCc2ccccc2)N2C[C@H](N)C[C@H]2C1=O` (some centres unmarked) [Example 50] belongs 1000 to 9990 nM.
`CC(C)C[C@H](C(=O)NCc1ccc(F)c(F)c1)N1CCC(CCc2ccccc2)N2C[C@H](N)C[C@H]2C1=O` (some centres unmarked) [Example 53] registered an IC50 below 1000 nM.
`CC(C)C[C@H](C(=O)NCc1ccc(Cl)c(F)c1)N1CCC(CCc2ccccc2)N2C[C@H](N)C[C@H]2C1=O` (some centres unmarked) [Example 54] showed an IC50 below 1000 nM.
The value for `CC(C)C[C@H](C(=O)NCc1ccc(Cl)c(C(F)(F)F)c1)N1CCC(CCc2ccccc2)N2C[C@H](N)C[C@H]2C1=O` (some centres unmarked) [Example 55] was below 1000 nM; that for `CC(C)C[C@H](C(=O)NCc1ccc(C(F)(F)F)c(F)c1)N1CCC(CCc2ccccc2)N2C[C@H](N)C[C@H]2C1=O` (some centres unmarked) [Example 56] was below 1000 nM; that for `Cc1ccc(CNC(=O)[C@@H](CC(C)C)N2CCC(CCc3ccccc3)N3C[C@H](N)C[C@H]3C2=O)cc1Cl` (some centres unmarked) [Example 57] was below 1000 nM.
Regarding `COc1ccc(CNC(=O)[C@@H](CC(C)C)N2CCC(CCc3ccccc3)N3C[C@H](N)C[C@H]3C2=O)cc1Cl` (some centres unmarked) [Example 58], the IC50 is below 1000 nM.
The value for `COc1ccc(CNC(=O)[C@@H](CC(C)C)N2CCC(CCc3ccccc3)N3C[C@H](N)C[C@H]3C2=O)cc1` (some centres unmarked) [Example 59] was below 1000 nM; that for `CC(C)C[C@H](C(=O)N(C)Cc1ccc(Cl)c(Cl)c1)N1CCC(CCc2ccccc2)N2C[C@H](N)C[C@H]2C1=O` (some centres unmarked) [Example 60] was below 1000 nM; that for `CC(C)C[C@H](C(=O)NS(=O)(=O)c1ccccc1)N1CCC(CCc2ccccc2)N2C[C@H](N)C[C@H]2C1=O` (some centres unmarked) [Example 61] was below 1000 nM.
To `CC(C)C[C@H](C(=O)NS(=O)(=O)c1ccc(Cl)c(Cl)c1)N1CCC(CCc2ccccc2)N2C[C@H](N)C[C@H]2C1=O` (some centres unmarked) [Example 62] belongs 1000 to 9990 nM.
`N#CC[C@H](C(=O)NCc1ccc(Cl)cn1)N1CCC(CCc2ccccc2)N2C[C@H](N)C[C@H]2C1=O` (stereo partly drawn) [Example 63, (2R)-2-((8R,9aS)-8-amino-1-oxo-5-phenethylhexahydro-1H-pyrrolo[1,2-a][1,4]diazepin-2(3H)-yl)-N-((5-chloropyridin-2-yl)methyl)-3-cyanopropanamide.HCOOH] returned an IC50 below 1000 nM.
With `N#CC[C@H](C(=O)NCc1ccc(Cl)c(C(F)(F)F)c1)N1CCC(CCc2ccccc2)N2C[C@H](N)C[C@H]2C1=O` (some centres unmarked) [Example 64], the IC50 was below 1000 nM.
Molecule `CN(Cc1ccc(Cl)c(Cl)c1)C(=O)[C@@H](CC#N)N1CCC(CCc2ccccc2)N2C[C@H](N)C[C@H]2C1=O` (some centres unmarked) [Example 65] had an IC50 below 1000 nM.
Molecule `N#CC[C@H](C(=O)N1CCc2cc(Cl)c(Cl)cc2C1)N1CCC(CCc2ccccc2)N2C[C@H](N)C[C@H]2C1=O` (some centres unmarked) [Example 66] displayed an IC50 of 1000 to 9990 nM.
Regarding `N#CC[C@H](C(=O)N1CCc2c(ccc(Cl)c2Cl)C1)N1CCC(CCc2ccccc2)N2C[C@H](N)C[C@H]2C1=O` (some centres unmarked) [Example 67], the IC50 was 1000 to 9990 nM.
To `N#CC[C@H](C(=O)N1CCOC[C@@H]1c1ccccc1)N1CCC(CCc2ccccc2)N2C[C@H](N)C[C@H]2C1=O` (some centres unmarked) [Example 68] belongs 10000 to 100000 nM.
To `N#CC[C@H](C(=O)N1CCOC[C@H]1c1ccccc1)N1CCC(CCc2ccccc2)N2C[C@H](N)C[C@H]2C1=O` (some centres unmarked) [Example 69] belongs 1000 to 9990 nM; to `N[C@@H]1C[C@H]2C(=O)N([C@H](CCC(=O)O)C(=O)NCc3ccc(Cl)cn3)CCC(CCc3ccccc3)N2C1` (stereo partly drawn) [Example 70, (4R)-4-((8R,9aS)-8-amino-1-oxo-5-phenethylhexahydro-1H-pyrrolo[1,2-a][1,4]diazepin-2(3H)-yl)-5-(((5-chloropyridin-2-yl)methyl)amino)-5-oxopentanoic Acid], below 1000 nM; to `N[C@@H]1C[C@H]2C(=O)N([C@H](CCC(=O)O)C(=O)NCc3ccc(Cl)c(Cl)c3)CCC(CCOc3ccccc3)N2C1` (stereo partly drawn) [Example 71, (4R)-4-((8R,9aS)-8-amino-1-oxo-5-(2-phenoxyethyl)hexahydro-1H-pyrrolo[1,2-a][1,4]diazepin-2(3H)-yl)-5-((3,4-dichlorobenzyl)amino)-5-oxopentanoic Acid], 1000 to 9990 nM.
To `COc1ccc(OCC2CCN([C@H](CCC(=O)O)C(=O)NCc3ccc(Cl)c(Cl)c3)C(=O)[C@@H]3C[C@@H](N)CN23)cc1` (stereo partly drawn) [Example 72, (4R)-4-((8R,9aS)-8-amino-5-((4-methoxyphenoxy)methyl)-1-oxohexahydro-1H-pyrrolo[1,2-a][1,4]diazepin-2(3H)-yl)-5-((3,4-dichlorobenzyl)amino)-5-oxopentanoic Acid] belongs 1000 to 9990 nM.
The molecule `Cc1ccc(OCC2CCN([C@H](CCC(=O)O)C(=O)NCc3ccc(Cl)c(Cl)c3)C(=O)[C@@H]3C[C@@H](N)CN23)cc1` (some centres unmarked) [Example 73] had an IC50 of 1000 to 9990 nM.
On to `N[C@@H]1C[C@H]2C(=O)N([C@H](CCC(=O)O)C(=O)NCc3ccc(Cl)c(Cl)c3)CCC(COc3ccc(Cl)cc3)N2C1` (some centres unmarked) [Example 74], for which the IC50 is below 1000 nM.
`N[C@@H]1C[C@H]2C(=O)N([C@H](CCC(=O)O)C(=O)NCc3ccc(Cl)c(Cl)c3)CCC(COc3ccc(F)cc3)N2C1` (some centres unmarked) [Example 75] displayed an IC50 below 1000 nM.
`N[C@@H]1C[C@H]2C(=O)N([C@H](CCC(=O)O)C(=O)NCc3ccc(Cl)c(Cl)c3)CCC(COc3cccc(Cl)c3)N2C1` (some centres unmarked) [Example 76] registered an IC50 below 1000 nM.
The value for `N[C@@H]1C[C@H]2C(=O)N([C@H](CCC(=O)O)C(=O)NCc3ccc(Cl)c(Cl)c3)CCC(COc3ccccc3Cl)N2C1` (some centres unmarked) [Example 78] was below 1000 nM; that for `N[C@@H]1C[C@H]2C(=O)N([C@H](CCC(=O)O)C(=O)NCc3ccc(Cl)c(Cl)c3)CCC(COc3cnccn3)N2C1` (some centres unmarked) [Example 80] was 1000 to 9990 nM.
